Source: patent publication US20240368139A1, “NOVEL MODULATORS OF EHMT1 AND EHMT2 AND THERAPEUTIC USE THEREOF” (Tango Therapeutics, Inc., priority 2021, published 2024)

Experiments:
H3K9me2 in HCT116 cells = assay: HCT116 H3K9me2 in-cell western assay; assay type: cell-based; details: Homo sapiens, HCT-116, 72 h, HCT116 cells, 72 hours incubation; read-out: H3K9me2 ICW IC50
Method in brief: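 H3K9me2 signal (800 nm) was normalized to DRAQ5 DNA stain (700 nm) in an in-cell western. Cells were fixed with paraformaldehyde and probed overnight at 4° C with primary antibody.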

human EHMT1 982-1266 = target: T1, human EHMT1 982-1266 (Homo sapiens, UniProt Q9H9B1); assay: EHMT1 enzyme assay on histone peptide substrate (3H-SAM SPA); details: EHMT1 IC50, recombinant human EHMT1 982-1266, histone peptide substrate
T1 sequence (Q9H9B1 982-1266): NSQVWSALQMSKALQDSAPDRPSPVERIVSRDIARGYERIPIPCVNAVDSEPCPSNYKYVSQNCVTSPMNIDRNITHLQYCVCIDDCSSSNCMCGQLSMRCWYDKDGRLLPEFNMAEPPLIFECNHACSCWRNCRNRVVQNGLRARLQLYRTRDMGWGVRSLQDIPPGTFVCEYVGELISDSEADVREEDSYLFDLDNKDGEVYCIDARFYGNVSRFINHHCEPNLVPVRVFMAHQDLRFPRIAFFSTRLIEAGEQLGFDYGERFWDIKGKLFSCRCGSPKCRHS

human EHMT2 913-1193 = target: T2, human EHMT2 913-1193 (Homo sapiens, UniProt Q96KQ7); assay: EHMT2 enzyme assay on histone peptide substrate (3H-SAM SPA); details: EHMT2 IC50, recombinant human EHMT2 913-1193, histone peptide substrate
T2 sequence (Q96KQ7 913-1193): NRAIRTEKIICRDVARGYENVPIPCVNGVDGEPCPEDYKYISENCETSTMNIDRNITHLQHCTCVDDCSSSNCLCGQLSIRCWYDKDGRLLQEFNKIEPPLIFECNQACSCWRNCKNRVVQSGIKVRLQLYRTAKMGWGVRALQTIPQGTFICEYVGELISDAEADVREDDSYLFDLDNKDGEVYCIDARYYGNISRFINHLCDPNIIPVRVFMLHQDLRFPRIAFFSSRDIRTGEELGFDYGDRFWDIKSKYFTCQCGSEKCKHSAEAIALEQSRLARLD

Row | IC50 (H3K9me2 in HCT116 cells) [nM] | IC50 (human EHMT1 982-1266) [nM] | IC50 (human EHMT2 913-1193) [nM] | Structure (SMILES)
1 | < 100 | < 100 | < 100 | [2H]C([2H])([2H])CNc1cc(C)nc(Nc2cc3c(c(C4=CCN(C)CCC4)c2F)OCC3)n1 [Compound 217]
2 | 100 to 500 | 100 to 500 | 500 to 2000 | [2H]Cc1nc(Nc2cc3c(c(C4=CCN(C)CCC4)c2)OCC3)nc(NC)c1F [Compound 218]
3 | < 100 | 100 to 500 | 100 to 500 | [2H]Cc1nc(Nc2cc3c(c(C4=CCN(C)CCC4)c2F)OCC3)nc(NC([2H])([2H])[2H])c1F [Compound 219]
4 | 100 to 500 | 100 to 500 | 500 to 2000 | [2H]Cc1nc(Nc2cc3c(c(C4=CCN(C)CCC4)c2)OCC3)nc(NC([2H])([2H])[2H])c1F [Compound 220]
5 | < 100 | 100 to 500 | 500 to 2000 | [2H]Cc1nc(Nc2cc3c(c(C4=CCN(C)CCC4)c2F)OCC3)nc(NC)c1F [Compound 221]
6 | 100 to 500 | 100 to 500 | 500 to 2000 | [2H]Cc1nc(Nc2cc3c(c(C4=CCN(C)CCC4)c2F)OCC3)nc(NCC([2H])([2H])[2H])c1F [Compound 222]
7 | < 100 | < 100 | < 100 | CNc1nc(Nc2cc3c(c(C4=CCNCCC4)c2F)OCC3)nc(C)c1C [Compound 223, N2-[6-fluoro-7-(2,3,4,7-tetrahydro-1H-azepin-5-yl)-2,3-dihydrobenzofuran-5-yl]-N4,5,6-trimethyl-pyrimidine-2,4-diamine]
8 | < 100 | < 100 | < 100 | CNc1nc(Nc2cc3c(c(C4=CCNCCC4)c2F)OCC3)nc(C)c1Cl [Compound 224]
9 | < 100 | < 100 | < 100 | [2H]Cc1nc(Nc2cc3c(c(C4=CCNCCC4)c2F)OCC3)nc(NC([2H])([2H])[2H])c1F [Compound 225]
10 | 100 to 500 | < 100 | 100 to 500 | [2H]Cc1nc(Nc2cc3c(c(C4=CCNCCC4)c2F)OCC3)nc(NCC([2H])([2H])[2H])c1F [Compound 226]
11 | < 100 | < 100 | < 100 | [2H]C([2H])([2H])N1CC=C(c2c(F)c(Nc3nc(C)cc(NC)n3)cc3c2OCC3)CCC1 [Compound 227]
12 | 100 to 500 | < 100 | 100 to 500 | [2H]C([2H])([2H])Nc1nc(Nc2cc3c(c(C4=CCN(C)CCC4)c2F)OCC3)nc(C)c1F [Compound 228]
13 | 100 to 500 | < 100 | 100 to 500 | [2H]Cc1nc(Nc2cc3c(c(C4=CCNCCC4)c2)OCC3)nc(NC)c1F [Compound 229]
14 | 100 to 500 | < 100 | 100 to 500 | [2H]Cc1cc(NC([2H])([2H])[2H])nc(Nc2cc3c(c(C4=CCN(C)CCC4)c2)OCCO3)n1 [Compound 230]
15 | < 100 | < 100 | < 100 | [2H]C([2H])([2H])CNc1cc(C)nc(Nc2cc3c(c(C4=CCNCCC4)c2F)OCC3)n1 [Compound 231]
16 | 100 to 500 | 100 to 500 | 100 to 500 | [2H]Cc1nc(Nc2cc3c(c(C4=CCNCCC4)c2)OCC3)nc(NC([2H])([2H])[2H])c1F [Compound 232]
17 | 500 to 2000 | 100 to 500 | 500 to 2000 | [2H]Cc1nc(Nc2cc3c(c(C4=CCNCCC4)c2)OCO3)nc(NCC([2H])([2H])[2H])c1F [Compound 233]
18 | < 100 | < 100 | < 100 | [2H]Cc1cc(NC([2H])([2H])[2H])nc(Nc2cc3c(c(C4=CCN(C)CCC4)c2F)OCC3)n1 [Compound 234]
19 | < 100 | < 100 | < 100 | [2H]Cc1nc(Nc2cc3c(c(C4=CCNCCC4)c2F)OCC3)nc(NC)c1F [Compound 235]
20 | 100 to 500 | < 100 | 100 to 500 | CNc1cc(Nc2cc3c(c(C4=CCN(C)CCC4)c2F)OCCC3)nc(C)c1F [Compound 236]
21 | 100 to 500 | 100 to 500 | 500 to 2000 | [2H]Cc1nc(Nc2cc3c(c(C4=CCNCCC4)c2)OCC3)nc(NCC([2H])([2H])[2H])c1F [Compound 237]
22 | < 100 | < 100 | < 100 | [2H]C([2H])([2H])Nc1cc(C)nc(Nc2cc3c(c(C4=CCN(C)CCC4)c2F)OCC3)n1 [Compound 238]
23 | 100 to 500 | < 100 | 100 to 500 | CCNc1nc(Nc2cc3c(c(C4=CCNCCC4)c2F)OCC3)nc(C)c1F [Compound 239]
